The structures appear in SMILES notation.

The target of the test is T1, full length active recombinant SYK enzyme (Homo sapiens, UniProt P43405).
T1 construct: full length active recombinant SYK enzyme (Millipore, Calif.); purchased Millipore
The test can be described thus: Inhibition of Syk tyrosine phosphorylation activity (LANCE TR-FRET kinase assay). Type of test: biochemical. Particulars: activity in the Syk assays, class symbols. From the text: The in vitro and in vivo human Syk activities of the inventive compounds can be determined by various procedures known in the art, such as a test for their ability to inhibit the activity of human plasma Syk. […] The IC50 value is the concentration (in nM) of the compound required to provide 50% inhibition of human Syk proteolytic activity.
An in vitro assay for detecting and measuring inhibition activity against Syk is as follows:
Inhibition of Syk Tyrosine Phosphorylation Activity
Potency of candidate molecules for inhibiting Syk tyrosine phosphorylation activity is assessed by measuring the ability of a test compound to inhibit Syk-mediated tyrosine phosphorylation of a Syk-specific substrate.
SYK tyrosine phosphorylation activity is measured using the LANCE™ Technology developed by Perkin Elmer Life and Analytical Sciences (Boston, Mass.). LANCE™ refers to homogeneous time resolved fluorometry applications using techniques such as time-resolved fluorescence resonance energy transfer assay (TR-FRET) (see generally for procedures in Perkin Elmer Application Note-How to Optimize a Tyrosine Kinase Assay Using Time Resolved Fluorescence-Based LANCE Detection, wwww.perkinelmer.com/lifesciences). The assay principle involves detection of a phosphorylated substrate using energy transfer from a phosphospecific europium-labeled antibody to streptavidin-allophycocyanin as an acceptor.
To test the ability of candidate molecules to inhibit SYK tyrosine phosphorylation activity, molecules are reconstituted in 30% DMSO and serially diluted 1:3 with the final dilution containing DMSO in the absence of the candidate molecule. The final DMSO concentration in the assay is 3%. Kinase assays are performed as a two part reaction. The first reaction is a kinase reaction and which comprises of a candidate molecule, full length active recombinant SYK enzyme (Millipore, Calif.) and biotin-labeled SYK-specific substrate biotin-DEEDYESP-OH. The second reaction involves termination of the kinase reaction and the simultaneous addition of the detection reagents-europium-labeled anti-phosphotyrosine reagent (Eu-W1024-PY100, Perkin Elmer, Boston, Mass.) and Streptavidin-Allophycocyanin detection reagent (SA-APC, Prozyme, CA). The kinase reaction is performed in a black U-bottom 96-well microtitre plate. The final reaction volume is 50 μL and contains a final concentration of 1 nM active SYK enzyme, 550 nM SYK-substrate, and 100 μM ATP diluted in a buffer containing 50 mM Tris pH 7.5, 5 mM MgCl2, and 1 mM DTT. The reaction is allowed to proceed for 1 hour at room temperature. The quench buffer contains 100 mM Tris pH 7.5, 300 mM NaCl2, 20 mM EDTA, 0.02% Brij35, and 0.5% BSA. The detection reagents are added to the reaction mixture at the following dilutions-1:500 for Eu-W1024-PY100 and 1:250 for SA-APC. The kinase reaction is terminated by the addition of 50 μL quench buffer containing the detection reagents. The detection is allowed to proceed for 1 hr at room temperature. Detection of the phosphorlated substrate in the absence and presence of inhibitors is measured in the TR-FRET instrument, Analyst HT (Molecular Probes, Sunnyvale, Calif.) and the condition for measurements are set up using CriterionHost Release 2.0 (Molecular Probes, Sunnyvale, Calif.). The settings used are a follows: excitation 360 nm, emission 665-7.5 nm, beam splitter 350 nm 50/50, flash 100 pulses, delay 60 us, integration 400 us, z-height 2 mm. Inhibition of SYK-tyrosine kinase activity is calculated as the maximum response observed in the presence of inhibitor, compared to that in the absence of inhibitor. IC50s were derived by non-linear regression analysis.
As for `NC(=O)c1ncc(N[C@@H]2CCCC[C@@H]2N)nc1Nc1cnc2ncccc2c1` [Example 420, 3-((1,8-naphthyridin-3-yl)amino)-5-(((1R,2S)-2-aminocyclohexyl)amino)pyrazine-2-carboxamide], the IC50 (usually the concentration that gives 50% inhibition) fell in the range of 1 to 10 nM.
Then `Cc1cc(Nc2nc(N[C@H](CC(F)(F)F)C(N)=O)cnc2C(N)=O)sn1` [Example 398, (R)-5-(1-amino-4,4,4-trifluoro-1-oxobutan-2-ylamino)-3-(3-methylisothiazol-5-ylamino)pyrazine-2-carboxamide], with 1 to 10 nM; and `Cc1cc(Nc2nc(N[C@H](C)C(N)=O)cnc2C(N)=O)sn1` [Example 215, (R)-5-(1-amino-1-oxopropan-2-ylamino)-3-(3-methylisothiazol-5-ylamino)pyrazine-2-carboxamide], with 10 to 100 nM; and `NC(=O)c1ncc(N[C@@H]2CCCC[C@@H]2N)nc1Nc1snc2ncccc12` [Example 412, 5-((1R,2S)-2-aminocyclohexylamino)-3-(isothiazolo[3,4-b]pyridin-3-ylamino)pyrazine-2-carboxamide], with less than 1 nM.
The same measure for `CS(=O)(=O)c1ccc(Nc2nc(N[C@@H]3CCCC(F)(F)[C@@H]3N)cnc2C(N)=O)cc1` [Example 167, 5-((1R,2R)-2-amino-3,3-difluorocyclohexylamino)-3-(4-(methylsulfonyl)phenylamino)pyrazine-2-carboxamide]: 10 to 100 nM; for `CC[C@@H](Nc1cnc(C(N)=O)c(Nc2snc3ccccc23)n1)C(N)=O` [Example 269, (R)-5-(1-amino-1-oxobutan-2-ylamino)-3-(benzo[c]isothiazol-3-ylamino)pyrazine-2-carboxamide]: less than 1 nM; for `NC(=O)c1ncc(N[C@@H]2CCCC[C@@H]2N)nc1Nc1cc(-n2nccn2)cc(-n2nccn2)c1` [Example 424, 5-(((1R,2S)-2-aminocyclohexyl)amino)-3-((3,5-di(2H-1,2,3-triazol-2-yl)phenyl)amino)pyrazine-2-carboxamide]: 1 to 10 nM.
Then `CC(C)C[C@@H](Nc1nc(Nc2cnc3ccccc3c2)cnc1C(N)=O)C(N)=O` [Example 95, (R)-3-(1-amino-4-methyl-1-oxopentan-2-ylamino)-5-(quinolin-3-ylamino)pyrazine-2-carboxamide], with greater than 1000 nM; and `CC[C@@H](Nc1cnc(C(N)=O)c(Nc2cncc3ccccc23)n1)C(N)=O` [Example 367, (R)-5-(1-amino-1-oxobutan-2-ylamino)-3-(isoquinolin-4-ylamino)pyrazine-2-carboxamide], with 1 to 10 nM; and `Cc1cccc(Nc2nc(N[C@H](CC(C)C)C(N)=O)cnc2C(N)=O)c1` [Example 63, (R)-5-(1-amino-4-methyl-1-oxopentan-2-ylamino)-3-(m-tolylamino)pyrazine-2-carboxamide], with 10 to 100 nM.
In the case of `NC(=O)c1ncc(N[C@@H]2CCNC2)nc1Nc1cccc(-c2ncccn2)c1` [Example 114, (R)-3-((3-(pyrimidin-2-yl)phenyl)amino)-5-(pyrrolidin-3-ylamino)pyrazine-2-carboxamide], the IC50 is 1 to 10 nM.
Then `NC(=O)c1ncc(N[C@@H]2CCCC[C@@H]2N)nc1Nc1cc(CO)ns1` [Example 250, 5-((1R,2S)-2-aminocyclohexylamino)-3-(3-(hydroxymethyl)isothiazol-5-ylamino)pyrazine-2-carboxamide], with 1 to 10 nM.
Then `CC[C@@H](Nc1cnc(C(N)=O)c(Nc2cccc3ccncc23)n1)C(N)=O` [Example 377, (R)-5-(1-amino-1-oxobutan-2-ylamino)-3-(isoquinolin-8-ylamino)pyrazine-2-carboxamide], with 100 to 1000 nM.
`Cc1nsc(Nc2nc(N[C@@H]3CCCC[C@@H]3N)cnc2C(N)=O)c1F` [Example 138]: the IC50 was 1 to 10 nM.
Then `COc1ncc(Nc2nc(N[C@@H]3CCCC[C@@H]3N)cnc2C(N)=O)cc1C` [Example 306, 5-((1R,2S)-2-aminocyclohexylamino)-3-(6-methoxy-5-methylpyridin-3-ylamino)pyrazine-2-carboxamide], with 1 to 10 nM; and `NC(=O)c1ncc(N[C@@H]2CCCC[C@@H]2N)nc1Nc1ccnc(C2CC2)c1` [Example 352, 5-((1R,2S)-2-aminocyclohexylamino)-3-(2-cyclopropylpyridin-4-ylamino)pyrazine-2-carboxamide], with less than 1 nM.
The same measure for `Cc1cc(Nc2nc(N[C@H](CC(F)F)C(N)=O)cnc2C(N)=O)sn1` [Example 119, (R)-5-((1-amino-4,4-difluoro-1-oxobutan-2-yl)amino)-3-((3-methylisothiazol-5-yl)amino)pyrazine-2-carboxamide]: 1 to 10 nM; for `CS(=O)(=O)c1ccc(Nc2nc(N[C@H](CC3CC3)C(N)=O)cnc2C(N)=O)cc1` [Example 166, (R)-5-(1-amino-3-cyclopropyl-1-oxopropan-2-ylamino)-3-(4-(methylsulfonyl)phenylamino)pyrazine-2-carboxamide]: 1 to 10 nM; for `NC(=O)c1ncc(NCC2(N)CC2)nc1Nc1ccc2ncccc2c1` [Example 128, 5-(((1-aminocyclopropyl)methyl)amino)-3-(quinolin-6-ylamino)pyrazine-2-carboxamide]: 1 to 10 nM.
The same measure for `NC(=O)c1ncc(N[C@@H]2CCCC[C@@H]2N)nc1Nc1cc(C(=O)N2CCCC2)ccc1F` [Example 289, 5-((1R,2S)-2-aminocyclohexylamino)-3-(2-fluoro-5-(pyrrolidine-1-carbonyl)phenylamino)pyrazine-2-carboxamide]: 10 to 100 nM; for `Cc1cncc(Nc2nc(N[C@H](CC3CC3)C(N)=O)cnc2C(N)=O)c1` [Example 99, (R)-5-(1-amino-3-cyclopropyl-1-oxopropan-2-ylamino)-3-(5-methylpyridin-3-ylamino)pyrazine-2-carboxamide]: 1 to 10 nM; for `NC(=O)c1ncc(N[C@@H]2CCCC(F)(F)[C@@H]2N)nc1Nc1ccc2c(c1)CCC2` [Example 454, 5-(((1R,2R)-2-amino-3,3-difluorocyclohexyl)amino)-3-((2,3-dihydro-1H-inden-5-yl)amino)pyrazine-2-carboxamide]: 10 to 100 nM.
With `CC(C)(C)[C@@H](Nc1cnc(C(N)=O)c(Nc2ccc3cccnc3c2)n1)C(N)=O` [Example 235, (R)-5-(1-amino-3,3-dimethyl-1-oxobutan-2-ylamino)-3-(quinolin-7-ylamino)pyrazine-2-carboxamide], the IC50 lay within 10 to 100 nM.
Then `Cc1cc(Nc2nc(N[C@@H](C(N)=O)C(C)(C)C)cnc2C(N)=O)sn1` [Example 214, (R)-5-(1-amino-3,3-dimethyl-1-oxobutan-2-ylamino)-3-(3-methylisothiazol-5-ylamino)pyrazine-2-carboxamide], with 10 to 100 nM.
The same measure for `CC(C)C[C@@H](Nc1cnc(C(N)=O)c(Nc2ccnc(N(C)C)c2)n1)C(N)=O` [Example 335, (R)-5-(1-amino-4-methyl-1-oxopentan-2-ylamino)-3-(2-(dimethylamino)pyridin-4-ylamino)pyrazine-2-carboxamide]: 1 to 10 nM.
Then `Cc1ccc(Nc2nc(N[C@H](CC(F)F)C(N)=O)cnc2C(N)=O)cc1` [Example 123, (R)-5-((1-amino-4,4-difluoro-1-oxobutan-2-yl)amino)-3-(p-tolylamino)pyrazine-2-carboxamide], with 1 to 10 nM; and `CS(=O)(=O)Cc1ccc(Nc2nc(N[C@@H]3CCCC[C@@H]3N)cnc2C(N)=O)cc1` [Example 145, 5-((1R,2S)-2-aminocyclohexylamino)-3-(4-(methylsulfonylmethyl)phenylamino)pyrazine-2-carboxamide], with 10 to 100 nM.
For the molecule `NC(=O)c1ncc(N[C@@H]2CCCC[C@@H]2N)nc1Nc1cc(C2CC2)no1` [Example 231, 5-((1R,2S)-2-aminocyclohexylamino)-3-(3-cyclopropylisoxazol-5-ylamino)pyrazine-2-carboxamide], the IC50 is 10 to 100 nM.

The values above are taken from patent publication US9359308B2, “Pyrazine kinase inhibitors” (Portola Pharmaceuticals, Inc., priority 2011, dated 2016).
